Experimental data taken from paper PMC2781551, “Antibody Complementarity-Determining Regions (CDRs): A Bridge between Adaptive and Innate Immunity” (PLoS ONE, 2009).

Experiments:
[1] = system: IkBα; test: Phospho-IkBα Western blotting in PM; format: cell-based, mouse (Balb/c); details: PM 3×10^6/ml, 10 µg/ml, 1 h, Western blot, compared to NC, n = 5
Description: (§1) After incubation, cells were washed and lysated with Mammalian protein extraction reagent (M-PER) in the presence of protease and phosphatase inhibitors (all from Pierce, Rockford, IL). Protein concentration was determined with a BCA protein Assay Reagent kit (Pierce). The lysates (30 µg of each sample) were separated by sodium dodecyl-sulfate-10% PAGE, transferred to a nitrocellulose membrane (Pierce) for 1 h at 100 V in a blotting system (Bio-Rad) for Western Blot analysis, and the membranes were incubated over-night with rabbit polyclonal Abs to phospho-Akt (pAkt; dilution 1/1000), phospho-IkBα (pIkBα; dilution 1/1000) (all from Cell Signalling Technology, Beverly, MA) and rabbit polyclonal Ab to TLR-4 (dilution 1/200) (Santa Cruz Biotechnology Inc.) in blocking buffer. […] Immunoreactive bands were visualized and quantified by Chemidoc Instrument (Bio-Rad). In particular, a quantitative analysis of the region of interest drawn around the outer edge of the band, was performed based on the guidelines for the use of the Chemidoc Instrument (Bio-Rad). […] All the parallelograms that form a band create one unique three-dimensional solid structure on which the volume is calculated. […]

[2] = system: Akt; test: Phospho-Akt Western blotting in PM; format: cell-based, mouse (Balb/c); details: PM 3×10^6/ml, 10 µg/ml, 1 h, Western blot, with respect to NC and SP, n = 5
Description: as §1

[3] = system: TLR-4; test: TLR-4 expression in PM (flow cytometry); format: cell-based, mouse (Balb/c); details: PM 1×10^6/ml, 10 µg/ml, 1 h, RPE-labelled mAb to TLR-4, FACScan, representative experiment out of five
From the text: Data are reported as percentage of positive cells. […] Data are expressed as percentage of positive cells.

[4] = system: TLR-4; test: TLR-4 protein Western blotting in PM; format: cell-based, mouse (Balb/c); details: PM 3×10^6/ml, 10 µg/ml, 1 and 3 h, Western blot, n = 5
Description: as §1

[5] = system: C. albicans (CA-6); test: Therapeutic activity against systemic candidiasis in mice; format: in vivo, Balb/c mice; details: 200 µg i.p. 4 h before, 100 µg 1 and 2 days after infection
Description: Female, 8–10 weeks old, inbred Balb/c mice were obtained from Harlan Nossan Laboratories (Milan, Italy) and housed at the Animal Facilities of the University of Perugia, Perugia, Italy. Procedures involving animals and their care were conducted in conformity with national and international laws and policies.
Groups of 7 Balb/c mice were infected intravenously with 5×10^5 or 7.5×10^5 CA-6 cells suspended in 0.5 ml saline for evaluation of fungal clearance or mice survival, respectively.
Infected animals were given 200 µg of mouse VLCDR3 or VHCDR3 peptides intraperitoneally 4 h before infection, and 100 µg 1 and 2 days after infection for a total of 400 µg/mouse. Untreated animals served as a NC. Quantification of fungal growth at 5, 7, and 12 days after infection was assessed by plating serial dilutions of kidney homogenates onto Sabouraud agar. Animal survival was monitored for 30 days after infection.

Sequence: GQYGNLWFAY [VHCDR3]
- IkBα phosphorylation (pIkBα normalized against IkBα) [1]: increased activation of pIkBα
- Akt phosphorylation (pAkt normalized against Akt) [2]: increased activation of pAkt
- Percentage of TLR-4 positive cells [3]: significant increase
- Percentage of TLR-4 positive cells ([3]; listed as VH CDR3): 38.1
- TLR-4 protein (normalized against actin) [4]: significant up-regulation
- CFU recovery from kidneys ([5]; 5×10^5 CA-6 cells i.v., 5, 7 and 12 days after infection, n = 7): impressive decrease
- survival of infected mice ([5]; 7.5×10^5 CA-6 cells i.v., 30 days, vs untreated or VLCDR3-treated, Log rank P<0.05, n = 7): significant increase in survival
